The target in data set [1] is CYP2D6 (Homo sapiens, UniProt P10635). Description: Activity of human recombinant CYP2D6 assessed as enzyme-mediated drug metabolism at 10 uM after 120 mins by LC-MS/MS analysis in presence of NADPH. In kind it is ADME. The following applies: read-out: Compound recovery.
For data set [2], the system named is Liver microsome. As to the kind of experiment: Drug metabolism in human liver microsomes assessed as 2-hydroxyethyl (1R,3aR,4aR,6R,8aR,9S,9aS)-9-((E)-2-(5-(3-fluorophenyl)pyridin-2-yl)vinyl)-1-methyl-3-oxododecahydronaphtho[2,3-c]furan-6-ylcarbamate formation at 25 uM after 120 mins by LC-MS/MS analysis in presence of ketoconazole. It is filed as ADME. The following applies: 2 h. On the technique in general: Liver microsomes are a subcellular fraction often used to study metabolism.

Data set [3] can be described thus: Drug metabolism in human liver S9 fraction assessed as compound remaining at 10 uM after 120 mins by LC-MS/MS analysis in presence of NADPH. In kind it is ADME, subcellular. The following applies: read-out: Compound recovery.
In data set [4] the test system is Liver microsome. Description: Drug metabolism in human liver microsomes assessed as (3R,3aS,4S,4aR,7R,8aR,9aR)-7-amino-4-((E)-2-(5-(3-fluorophenyl)pyridin-2-yl)vinyl)-3-methyldecahydronaphtho[2,3-c]furan-1(3H)-one formation at 10 to 25 uM after 120 mins by LC-MS/MS analysis in presence of omeprazole. In kind it is ADME. To be noted: 2 h.
A short description of data set [5]: Drug metabolism in human lung microsomes assessed as 2-hydroxyethyl (1R,3aR,4aR,6R,8aR,9S,9aS)-9-((E)-2-(5-(3-fluorophenyl)pyridin-2-yl)vinyl)-1-methyl-3-oxododecahydronaphtho[2,3-c]furan-6-ylcarbamate formation at 25 uM after 120 mins by LC-MS/MS analysis in presence of NADPH. The following applies: 2 h. In kind it is ADME, microsome.
Data set [6] has as its system Liver microsome. Description: Drug metabolism in human liver microsomes assessed as (3R,3aS,4S,4aR,7R,8aR,9aR)-7-amino-4-((E)-2-(5-(3-fluorophenyl)pyridin-2-yl)vinyl)-3-methyldecahydronaphtho[2,3-c]furan-1(3H)-one formation at 10 to 25 uM after 120 mins by LC-MS/MS analysis in presence of sulfaphenazole. In kind it is ADME. To be noted: 2 h.
Data set [7] deals with Liver microsome. As to the kind of experiment: Drug metabolism in human liver microsomes assessed as (3R,3aS,4S,4aR,7R,8aR,9aR)-7-amino-4-((E)-2-(5-(3-fluorophenyl)pyridin-2-yl)vinyl)-3-methyldecahydronaphtho[2,3-c]furan-1(3H)-one formation at 10 to 25 uM after 120 mins by LC-MS/MS analysis in presence of quinidine. It is filed as ADME. The following applies: 2 h.
In data set [8] the target is CYP2B6 (Homo sapiens, UniProt P20813). Description: Activity of human recombinant CYP2B6 assessed as enzyme-mediated drug metabolism at 10 uM after 120 mins by LC-MS/MS analysis in presence of NADPH. It is filed as ADME. The following applies: read-out: Compound recovery.
Data set [9] addresses T1, Cytochrome P450 2C9 (Homo sapiens, UniProt P11712). As to the kind of experiment: Activity of human recombinant CYP2C9 assessed as enzyme-mediated drug metabolism treated with 25 uM vorapaxar after 120 mins by LC-MS/MS analysis in presence of NADPH. The following applies: 2 h. It is filed as ADME.
In data set [10] the target is T2, Cytochrome P450 4F12 (Homo sapiens, UniProt Q9HCS2). Description: Activity of human recombinant CYP4F12 assessed as enzyme-mediated drug metabolism treated with 25 uM vorapaxar after 120 mins by LC-MS/MS analysis in presence of NADPH. The following applies: 2 h. In kind it is ADME.
T2 sequence (Q9HCS2 whole entry): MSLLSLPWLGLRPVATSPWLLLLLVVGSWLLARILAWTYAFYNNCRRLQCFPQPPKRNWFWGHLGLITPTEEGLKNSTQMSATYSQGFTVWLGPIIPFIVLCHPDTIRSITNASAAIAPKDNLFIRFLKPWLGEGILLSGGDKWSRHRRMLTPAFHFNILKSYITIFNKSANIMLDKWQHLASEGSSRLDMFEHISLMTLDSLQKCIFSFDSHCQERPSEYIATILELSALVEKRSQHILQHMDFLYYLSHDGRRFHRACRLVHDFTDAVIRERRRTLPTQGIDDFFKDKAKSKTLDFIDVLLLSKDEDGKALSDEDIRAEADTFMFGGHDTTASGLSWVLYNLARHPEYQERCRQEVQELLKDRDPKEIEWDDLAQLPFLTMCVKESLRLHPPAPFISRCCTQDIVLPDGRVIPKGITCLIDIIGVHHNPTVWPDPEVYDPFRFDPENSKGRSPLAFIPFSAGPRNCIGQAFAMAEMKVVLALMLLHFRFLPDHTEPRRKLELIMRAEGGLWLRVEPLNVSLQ
Data set [11] deals with Cytochrome P450 2C19 (Homo sapiens, UniProt P33261). Description: Activity of human recombinant CYP2C19 assessed as enzyme-mediated drug metabolism at 10 uM after 120 mins by LC-MS/MS analysis. The following applies: 2 h. In kind it is ADME.
Cytochrome P450 2C19, sequence (P33261 whole entry): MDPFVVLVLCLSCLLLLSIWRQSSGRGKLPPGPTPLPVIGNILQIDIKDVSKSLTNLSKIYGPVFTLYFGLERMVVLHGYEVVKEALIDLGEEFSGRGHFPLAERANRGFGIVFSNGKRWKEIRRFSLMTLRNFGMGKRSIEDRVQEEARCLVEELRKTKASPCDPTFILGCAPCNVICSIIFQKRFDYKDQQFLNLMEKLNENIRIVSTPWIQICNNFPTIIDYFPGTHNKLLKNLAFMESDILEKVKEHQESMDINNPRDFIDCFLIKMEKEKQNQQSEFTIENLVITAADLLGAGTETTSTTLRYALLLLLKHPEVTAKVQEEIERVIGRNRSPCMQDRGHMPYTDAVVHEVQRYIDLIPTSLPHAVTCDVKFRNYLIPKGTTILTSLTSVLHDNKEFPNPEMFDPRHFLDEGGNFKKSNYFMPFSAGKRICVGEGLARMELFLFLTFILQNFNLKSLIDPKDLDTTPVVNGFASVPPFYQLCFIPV
Data set [12] addresses T3, Cytochrome P450 2B6 (Homo sapiens, UniProt P20813).
T3 sequence (P20813 whole entry): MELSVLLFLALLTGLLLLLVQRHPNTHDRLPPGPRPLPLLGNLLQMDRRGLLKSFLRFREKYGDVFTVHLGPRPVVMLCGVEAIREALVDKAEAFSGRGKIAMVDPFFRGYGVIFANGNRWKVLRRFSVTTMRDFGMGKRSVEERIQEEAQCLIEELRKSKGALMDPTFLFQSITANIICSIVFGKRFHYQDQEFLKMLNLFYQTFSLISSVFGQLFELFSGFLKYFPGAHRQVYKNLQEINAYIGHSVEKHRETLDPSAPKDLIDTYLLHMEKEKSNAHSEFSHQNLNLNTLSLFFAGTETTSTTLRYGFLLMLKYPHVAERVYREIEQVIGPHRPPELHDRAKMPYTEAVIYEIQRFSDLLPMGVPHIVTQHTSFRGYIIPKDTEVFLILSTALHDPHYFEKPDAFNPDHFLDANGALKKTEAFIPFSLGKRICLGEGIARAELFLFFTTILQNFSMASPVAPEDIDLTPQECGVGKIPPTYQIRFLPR
As to the kind of experiment: Activity of human recombinant CYP2B6 assessed as enzyme-mediated 2-hydroxyethyl (1R,3aR,4aR,6R,8aR,9S,9aS)-9-((E)-2-(5-(3-fluorophenyl)pyridin-2-yl)vinyl)-1-methyl-3-oxododecahydronaphtho[2,3-c]furan-6-ylcarbamate formation at 25 uM after 120 mins by LC-MS/MS analysis in presence of NADPH. It is filed as ADME. The following applies: 2 h.

The target in data set [13] is T2, Cytochrome P450 4F12. Description: Activity of human recombinant CYP4F12 assessed as enzyme-mediated 2-hydroxyethyl (1R,3aR,4aR,6R,8aR,9S,9aS)-9-((E)-2-(5-(3-fluorophenyl)pyridin-2-yl)vinyl)-1-methyl-3-oxododecahydronaphtho[2,3-c]furan-6-ylcarbamate formation at 25 uM after 120 mins by LC-MS/MS analysis in presence of NADPH. In kind it is ADME. To be noted: 2 h.

Data set [14] deals with T1, Cytochrome P450 2C9. Description: Activity of human recombinant CYP2C9 assessed as enzyme-mediated drug metabolism at 10 uM after 120 mins by LC-MS/MS analysis. It is filed as ADME. The following applies: 2 h.
Data set [15] deals with Liver microsome. Description: Drug metabolism in human liver microsomes assessed as (3R,3aS,4S,4aR,7R,8aR,9aR)-7-amino-4-((E)-2-(5-(3-fluorophenyl)pyridin-2-yl)vinyl)-3-methyldecahydronaphtho[2,3-c]furan-1(3H)-one formation after 120 mins by LC-MS/MS analysis. In kind it is ADME. The following applies: 2 h.
The target of data set [16] is T4, Cytochrome P450 1A2 (Homo sapiens, UniProt P05177).
T4 sequence (P05177 whole entry): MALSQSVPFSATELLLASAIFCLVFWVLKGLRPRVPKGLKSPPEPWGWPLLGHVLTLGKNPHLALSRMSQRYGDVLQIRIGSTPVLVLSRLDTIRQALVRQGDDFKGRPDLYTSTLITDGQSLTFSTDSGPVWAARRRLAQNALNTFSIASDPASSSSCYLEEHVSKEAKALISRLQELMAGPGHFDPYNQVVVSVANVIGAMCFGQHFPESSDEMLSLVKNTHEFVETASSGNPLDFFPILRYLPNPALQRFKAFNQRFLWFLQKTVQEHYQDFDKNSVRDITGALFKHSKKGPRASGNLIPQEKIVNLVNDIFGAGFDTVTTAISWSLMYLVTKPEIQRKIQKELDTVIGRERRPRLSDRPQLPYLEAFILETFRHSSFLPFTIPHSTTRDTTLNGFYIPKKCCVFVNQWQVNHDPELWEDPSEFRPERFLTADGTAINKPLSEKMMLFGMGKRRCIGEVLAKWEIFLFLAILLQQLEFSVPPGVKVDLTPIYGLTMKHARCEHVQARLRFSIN
As to the kind of experiment: Activity of human recombinant CYP1A2 assessed as enzyme-mediated (3R,3aS,4S,4aR,7R,8aR,9aR)-7-amino-4-((E)-2-(5-(3-fluorophenyl)pyridin-2-yl)vinyl)-3-methyldecahydronaphtho[2,3-c]furan-1(3H)-one formation at 25 uM after 120 mins by LC-MS/MS analysis in presence of NADPH. It is filed as ADME. The following applies: 2 h.

Each structure is given as a SMILES string.

T1 sequence (P11712 whole entry): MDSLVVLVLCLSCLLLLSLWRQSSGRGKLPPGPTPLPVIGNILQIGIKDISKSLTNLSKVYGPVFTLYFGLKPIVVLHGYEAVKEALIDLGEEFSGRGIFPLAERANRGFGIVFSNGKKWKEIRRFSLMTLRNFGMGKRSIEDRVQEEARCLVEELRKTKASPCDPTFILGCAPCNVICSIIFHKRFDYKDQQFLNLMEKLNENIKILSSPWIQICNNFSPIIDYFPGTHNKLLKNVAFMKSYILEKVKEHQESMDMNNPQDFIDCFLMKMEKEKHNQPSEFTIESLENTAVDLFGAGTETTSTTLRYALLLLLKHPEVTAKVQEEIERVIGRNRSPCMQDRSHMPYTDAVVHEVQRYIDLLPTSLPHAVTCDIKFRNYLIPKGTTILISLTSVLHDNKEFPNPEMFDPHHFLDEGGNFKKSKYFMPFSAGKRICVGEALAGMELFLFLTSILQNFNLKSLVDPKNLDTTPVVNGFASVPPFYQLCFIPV
CYP2D6, sequence (P10635 whole entry): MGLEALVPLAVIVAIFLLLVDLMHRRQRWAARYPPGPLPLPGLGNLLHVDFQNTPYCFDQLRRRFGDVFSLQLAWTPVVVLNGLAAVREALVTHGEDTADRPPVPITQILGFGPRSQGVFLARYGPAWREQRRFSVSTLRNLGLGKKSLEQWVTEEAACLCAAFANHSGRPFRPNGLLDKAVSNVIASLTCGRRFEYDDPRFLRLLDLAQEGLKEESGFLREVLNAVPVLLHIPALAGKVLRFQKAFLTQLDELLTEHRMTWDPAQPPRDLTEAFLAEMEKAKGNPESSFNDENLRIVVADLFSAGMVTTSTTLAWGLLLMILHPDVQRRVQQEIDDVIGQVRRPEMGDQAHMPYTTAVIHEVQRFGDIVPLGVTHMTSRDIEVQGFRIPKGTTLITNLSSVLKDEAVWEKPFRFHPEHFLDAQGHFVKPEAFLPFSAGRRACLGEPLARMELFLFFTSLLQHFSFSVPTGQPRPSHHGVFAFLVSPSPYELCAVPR

In the case of `CCOC(=O)N[C@@H]1CC[C@@H]2[C@@H](C1)C[C@H]1C(=O)O[C@H](C)[C@H]1[C@H]2/C=C/c1ccc(-c2cccc(F)c2)cn1` [VORAPAXAR], the remaining at 2 h, 10 µM in data set [1] was 98.1%; in [3], 95.7%; in data set [8] it was 97.7%. The Drug metabolism result is given as “metabolite_not_detected” in data set [2]; “metabolite_detected” in data set [4]; “metabolite_detected” in data set [5]; “metabolite_detected” in data set [6]; “metabolite_detected” in [7].

With `C[C@H]1OC(=O)[C@@H]2C[C@@H]3C[C@H](NC(=O)OCCO)CC[C@H]3[C@H](/C=C/c3ccc(-c4cccc(F)c4)cn3)[C@H]12`, the Drug metabolism entry in data set [9] and in data set [10] was “metabolite_detected” throughout.

What is called Km is the substrate concentration at which the rate is half of its maximum. Consider `CCOC(=O)N[C@@H]1CC[C@@H]2[C@@H](C1)C[C@H]1C(=O)O[C@H](C)[C@H]1[C@H]2/C=[14CH]/c1ccc(-c2cccc(F)c2)cn1`, for which the Drug metabolism result in [11] was “metabolite_not_detected”; in [12], “metabolite_detected”; in data set [13] it was “metabolite_detected”; in data set [14], “metabolite_not_detected”; in data set [16], “metabolite_detected”. Besides, in [15], the Michaelis constant (Km) was 23.5 µM.

The record behind these values is ChEMBL document CHEMBL3526033, “Identification of human liver cytochrome P450 enzymes involved in the metabolism of SCH 530348 (Vorapaxar), a potent oral thrombin protease-activated receptor 1 antagonist” (Drug Metab Dispos, 2011).
